Measured values taken from patent US20120165304A1, “6,7,8,9-Tetrahydro-5H-1,4,7,10a-tetraaza-cyclohept[f]indene derivatives, pharmaceutical compositions containing these compounds, their use and processes for preparing them” (BOEHRINGER INGELHEIM INTERNATIONAL GMBH, priority 2008, published 2012).

Biological target: human 5-HT2C receptor (Homo sapiens, UniProt P28335, I156V/I160V/N158S)
Experiment: cell-based

Chain of human 5-HT2C receptor (P28335 33-458 I156V/N158S/I160V limits assumed): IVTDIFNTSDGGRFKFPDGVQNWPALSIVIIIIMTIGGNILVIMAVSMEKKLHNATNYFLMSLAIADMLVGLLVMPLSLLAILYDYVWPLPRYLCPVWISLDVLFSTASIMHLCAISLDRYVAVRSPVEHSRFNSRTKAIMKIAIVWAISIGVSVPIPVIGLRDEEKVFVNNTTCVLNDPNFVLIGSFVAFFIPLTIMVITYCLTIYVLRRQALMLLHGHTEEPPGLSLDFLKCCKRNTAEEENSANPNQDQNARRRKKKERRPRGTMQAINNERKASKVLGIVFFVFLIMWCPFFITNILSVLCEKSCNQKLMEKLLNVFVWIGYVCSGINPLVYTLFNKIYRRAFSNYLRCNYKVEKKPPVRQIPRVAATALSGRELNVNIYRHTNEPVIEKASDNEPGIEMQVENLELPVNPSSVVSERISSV

In order of falling EC50:
1. c1cc2nc3c(c(N4CCCCC4)n2n1)CCNCC3 [Example 7.2]  4560 nM
2. CC1(C(=O)N2CCC(c3ccccc3F)CC2)CN(c2c3c(nc4ccnn24)CCNCC3)C1 [Example 32.6]  2780 nM
3. COc1ccc(N(C)C(=O)C2CN(c3c4c(nc5ccnn35)CCNCC4)C2)cc1 [Example 31.31]  2150 nM
4. O=C(C1CN(c2c3c(nc4ccnn24)CCNCC3)C1)N1CCCC2CCCCC21 (centres unmarked) [Example 31.127]  1280 nM
5. N#CC1CN(c2c3c(nc4ccnn24)CCNCC3)C1 [Example 22, 1-(6,7,8,9-Tetrahydro-5H-1,4,7,10a-tetraaza-cyclohepta[f]inden-10-yl)-azetidine-3-carbonitrile]  1020 nM
6. CN(C(=O)C1CN(c2c3c(nc4ccnn24)CCNCC3)C1)C1CCCc2ccccc21 (centres unmarked) [Example 31.171]  967 nM
7. O=C(C1CN(c2c3c(nc4ccnn24)CCNCC3)C1)N1CCC(c2cc(Cl)cc(Cl)c2)CC1 [Example 31.214]  471 nM
8. CC(C)COC1CN(c2c3c(nc4ccnn24)CCNCC3)C1 [Example 20.1]  359 nM
9. CCN(Cc1ccccc1)C(=O)C1CN(c2c3c(nc4ccnn24)CCNCC3)C1 [Example 31.23]  346 nM
10. CN1CCc2nc3ccnn3c(N3CC(C(=O)NCCCN4CC[C@@H](F)C4)C3)c2CC1 [Example 36.32]  288 nM
11. Cc1cnn2c(N3CC(C(=O)N4CCc5ccc(C(F)(F)F)cc54)C3)c3c(nc12)CCNCC3 [Example 31.246]  266 nM
12. CC(C)c1ccc(OC2CN(c3c4c(nc5ccnn35)CCNCC4)C2)cc1 [Example 35.44]  256 nM
13. CC(C)CCNC(=O)C1CN(c2c3c(nc4ccnn24)CCN(C)CC3)C1 [Example 36.56]  217 nM
14. CC#CCN(CC(C)C)C(=O)C1CN(c2c3c(nc4ccnn24)CCNCC3)C1 [Example 31.104]  215 nM
15. c1cncc(OC2CN(c3c4c(nc5ccnn35)CCNCC4)C2)c1 [Example 35.42]  212 nM
16. CN1CCc2nc3ccnn3c(N3CC(C(=O)NC4CC(C)(C)N(C)C(C)(C)C4)C3)c2CC1 [Example 36.25]  202 nM
17. CN(Cc1ccc(C(C)(C)C)cc1)C(=O)C1CN(c2c3c(nc4ccnn24)CCNCC3)C1 [Example 31.162]  187 nM
18. CN1CCc2nc3ccnn3c(N3CC(C(=O)N4CCCNCC4)C3)c2CC1 [Example 36.59]  173 nM
19. c1ccc(CCc2cnn3c(N4CCC4)c4c(nc23)CCNCC4)nc1 [Example 6, 10-Azetidin-1-yl-3-(2-pyridin-2-yl-ethyl)-6,7,8,9-tetrahydro-5H-1,4,7,10a-tetraaza-cyclohepta[f]indene]  156 nM
20. CN(CCc1cccc(Cl)c1)C(=O)C1CN(c2c3c(nc4ccnn24)CCNCC3)C1 [Example 31.59]  147 nM
21. CN1CCc2nc3ccnn3c(N3CC(C(=O)NCCC4CCCC4)C3)c2CC1 [Example 36.46]  143 nM
22. CC#CCNC(=O)C1CN(c2c3c(nc4ccnn24)CCNCC3)C1 [Example 37.105]  139 nM
23. CN1CCc2nc3ccnn3c(N3CC(C(=O)NCCCC(F)(F)F)C3)c2CC1 [Example 36.47]  130 nM
24. FC(F)(F)c1ccccc1OC1CN(c2c3c(nc4ccnn24)CCNCC3)C1 [Example 35.31]  129 nM
25. OC1CN(c2c3c(nc4ccnn24)CCNCC3)C1 [Example 1.2]  127 nM
26. O=C(C1CN(c2c3c(nc4ccnn24)CCNCC3)C1)N(Cc1ccccc1)Cc1ccc(F)cc1 [Example 31.197]  122 nM
27. c1cc2nc3c(c(C4CCC4)n2n1)CCNCC3 [Example 23, 10-Cyclobutyl-6,7,8,9-tetrahydro-5H-1,4,7,10a-tetraaza-cyclohepta[f]indene]  114 nM
28. CC(C)OCCNC(=O)C1CN(c2c3c(nc4ccnn24)CCNCC3)C1 [Example 37.96]  111 nM
29. CC1CN(C(=O)C2CN(c3c4c(nc5ccnn35)CCN(C)CC4)C2)CC(C)N1C (centres unmarked) [Example 36.7]  106 nM
30. Cc1cc(OC2CN(c3c4c(nc5ccnn35)CCNCC4)C2)cc(C)n1 [Example 35.23]  105 nM
31. O=C(NCCF)C1CN(c2c3c(nc4ccnn24)CCNCC3)C1 [Example 37.107]  91 nM
32. CC(C)CN1CCN(C(=O)C2CN(c3c4c(nc5ccnn35)CCN(C)CC4)C2)CC1 [Example 36.17]  88 nM
33. CN(Cc1ccccn1)C(=O)C1CN(c2c3c(nc4ccnn24)CCNCC3)C1 [Example 31.29]  87 nM
34. CN(Cc1ccccc1Br)C(=O)C1CN(c2c3c(nc4ccnn24)CCNCC3)C1 [Example 31.78]  83 nM
35. O=C(C1CN(c2c3c(nc4ccnn24)CCNCC3)C1)N1CCC(c2ccc(C(F)(F)F)cc2)CC1 [Example 31.109]  83 nM
36. CN(C)C(=O)C1CN(c2c3c(nc4ccnn24)CCNCC3)C1 [Example 9, 1-(6,7,8,9-Tetrahydro-5H-1,4,7,10a-tetraaza-cyclohepta[f]inden-10-yl)-azetidine-3-carboxylic acid dimethylamide]  71 nM
37. C=CCC1CN(C(=O)C2CN(c3c4c(nc5ccnn35)CCNCC4)C2)Cc2ccccc21 (centres unmarked) [Example 31.88]  71 nM
38. Clc1ccncc1OC1CN(c2c3c(nc4ccnn24)CCNCC3)C1 [Example 35.35]  67 nM
39. COC1(C)CCN(C(=O)C2CN(c3c4c(nc5ccnn35)CCNCC4)C2)CC1 [Example 31.220]  55 nM
40. COc1cccc(F)c1OCC1CN(c2c3c(nc4ccnn24)CCNCC3)C1 [Example 15.23]  47 nM
41. CCOc1ccccc1OC1CN(c2c3c(nc4ccnn24)CCNCC3)C1 [Example 35.37]  47 nM
42. O=C(NC1CCCOC1)C1CN(c2c3c(nc4ccnn24)CCNCC3)C1 (centres unmarked) [Example 37.49]  44 nM
43. O=C(NCCCC(F)(F)F)C1CN(c2c3c(nc4ccnn24)CCNCC3)C1 [Example 37.66]  42 nM
44. c1ccc(OC2CN(c3c4c(nc5ccnn35)CCNCC4)C2)nc1 [Example 20.6]  38 nM
45. O=C(C1CN(c2c3c(nc4ccnn24)CCNCC3)C1)N1CCC(c2ccccc2)CC1 [Example 31.63]  31 nM
46. COc1ccc2c(c1)CCN2C(=O)C1CN(c2c3c(nc4c(C)cnn24)CCNCC3)C1 [Example 31.247]  28 nM
47. O=C(C1CN(c2c3c(nc4ccnn24)CCNCC3)C1)N1CC2CC2(c2cccs2)C1 (centres unmarked) [Example 31.231]  27 nM
48. Fc1cccc(OCC2CN(c3c4c(nc5ccnn35)CCNCC4)C2)c1 [Example 15.19]  21 nM
49. CC1(C)CCC(NC(=O)C2CN(c3c4c(nc5ccnn35)CCNCC4)C2)CC1 [Example 37.53]  20 nM
50. Cc1ccc(F)c(OCC2CN(c3c4c(nc5ccnn35)CCNCC4)C2)c1 [Example 15.5]  7 nM
51. NC1CCN(C(=O)C2CN(c3c4c(nc5ccnn35)CCNCC4)C2)C1 (centres unmarked) [Example 37.16]  5 nM
52. CC1CN(C(=O)C2CN(c3c4c(nc5ccnn35)CCNCC4)C2)CC(C)N1C (centres unmarked) [Example 37.4]  4 nM
53. O=C(C1CN(c2c3c(nc4ccnn24)CCNCC3)C1)N1CCN(CC2CC2)CC1 [Example 37.17]  3 nM
54. CC(C)N1CCN(C(=O)C2CN(c3c4c(nc5ccnn35)CCNCC4)C2)CC1 [Example 37.3]  3 nM
55. CCCCN1CCN(C(=O)C2CN(c3c4c(nc5ccnn35)CCNCC4)C2)CC1 [Example 37.25]  3 nM
56. CNC1CCN(C(=O)C2CN(c3c4c(nc5ccnn35)CCNCC4)C2)C1 (centres unmarked) [Example 37.26]  2 nM
